In ChEMBL document CHEMBL3259791, “Discovery of (E)-3-((styrylsulfonyl)methyl)pyridine and (E)-2-((styrylsulfonyl)methyl)pyridine derivatives as anticancer agents: synthesis, structure-activity relationships, and biological activities” (J Med Chem, 2014):

Tests used:
Format in all cases: functional
[1] = test system: A2780; assay: Induction of apoptosis in human A2780 cells assessed as early-stage apoptotic cells at 0.06 uM after 48 hrs by annexin V/PI double staining (reference value: 7.13%)
[2] = test system: WI-38; assay: Induction of apoptosis in human WI38 cells assessed as necrotic cells at 1 uM after 48 hrs by annexin V/PI double staining (reference value: 0.99%)
[3] = test system: A2780; assay: Induction of apoptosis in human A2780 cells assessed as necrotic cells at 0.06 uM after 48 hrs by annexin V/PI double staining (reference value: 0.53%)
[4] = test system: A2780; assay: Antiproliferative activity against human A2780 cells assessed as cell growth inhibition after 72 hrs by MTT assay; settings: A2780, 72 h
[5] = test system: A2780; assay: Cell cycle arrest in human A2780 cells assessed as accumulation at subG1 phase at […] after 24 hrs by flow cytometric analysis (reference value: 0.62%)
[6] = test system: MCF7; assay: Antiproliferative activity against human MCF7 cells assessed as cell growth inhibition after 72 hrs by MTT assay; settings: MCF7, 72 h
[7] = test system: A2780; assay: Cell cycle arrest in human A2780 cells assessed as accumulation at S phase at 1 uM after 24 hrs by flow cytometric analysis (reference value: 22.72%)
[8] = test system: A2780; assay: Cell cycle arrest in human A2780 cells assessed as accumulation at S phase at […] after 24 hrs by flow cytometric analysis (reference value: 22.72%)
[9] = test system: A2780; assay: Induction of apoptosis in human A2780 cells assessed as early-stage apoptotic cells at 1 uM after 48 hrs by annexin V/PI double staining (reference value: 7.13%)
[10] = test system: WI-38; assay: Cell cycle arrest in human WI38 cells assessed as accumulation at subG1 phase at 1 uM after 24 hrs by flow cytometric analysis (reference value: 10.53%)
[11] = test system: WI-38; assay: Cell cycle arrest in human WI38 cells assessed as accumulation at subG1 phase at […] after 24 hrs by flow cytometric analysis (reference value: 10.53%)
[12] = test system: WI-38; assay: Induction of apoptosis in human WI38 cells assessed as early-stage apoptotic cells at 1 uM after 48 hrs by annexin V/PI double staining (reference value: 2.16%)
[13] = test system: WI-38; assay: Induction of apoptosis in human WI38 cells assessed as viable cells at […] after 48 hrs by annexin V/PI double staining (reference value: 80.59%); settings: WI-38, 48 h, read-out: Activity
[14] = test system: A2780; assay: Cell cycle arrest in human A2780 cells assessed as accumulation at G1 phase at […] after 24 hrs by flow cytometric analysis (reference value: 54.89%)
[15] = test system: WI-38; assay: Induction of apoptosis in human WI38 cells assessed as early-stage apoptotic cells at 0.06 uM after 48 hrs by annexin V/PI double staining (reference value: 2.16%)
[16] = test system: WI-38; assay: Induction of apoptosis in human WI38 cells assessed as early-stage apoptotic cells at […] after 48 hrs by annexin V/PI double staining (reference value: 2.16%)
[17] = test system: WI-38; assay: Induction of apoptosis in human WI38 cells assessed as late-stage apoptotic cells at 1 uM after 48 hrs by annexin V/PI double staining (reference value: 16.26%)
[18] = test system: WI-38; assay: Induction of apoptosis in human WI38 cells assessed as viable cells at 1 uM after 48 hrs by annexin V/PI double staining (reference value: 80.59%); settings: WI-38, 48 h, read-out: Activity
[19] = test system: A2780; assay: Cell cycle arrest in human A2780 cells assessed as accumulation at S phase at 0.06 uM after 24 hrs by flow cytometric analysis (reference value: 22.72%)
[20] = test system: A2780; assay: Induction of apoptosis in human A2780 cells assessed as viable cells at […] after 48 hrs by annexin V/PI double staining (reference value: 82.12%); settings: A2780, 48 h, read-out: Activity
[21] = test system: MDA-MB-231; assay: Antiproliferative activity against ER negative human MDA-MB-231 cells assessed as cell growth inhibition after 72 hrs by MTT assay; settings: MDA-MB-231, 72 h
[22] = test system: WI-38; assay: Induction of apoptosis in human WI38 cells assessed as necrotic cells at 0.06 uM after 48 hrs by annexin V/PI double staining (reference value: 0.99%)
[23] = test system: A2780; assay: Induction of apoptosis in human A2780 cells assessed as late-stage apoptotic cells at […] after 48 hrs by annexin V/PI double staining (reference value: 10.20%)
[24] = test system: A2780; assay: Cell cycle arrest in human A2780 cells assessed as accumulation at G1 phase at 0.06 uM after 24 hrs by flow cytometric analysis (reference value: 54.89%)
[25] = test system: A2780; assay: Cell cycle arrest in human A2780 cells assessed as accumulation at G1 phase at 1 uM after 24 hrs by flow cytometric analysis (reference value: 54.89%)
[26] = test system: WI-38; assay: Cell cycle arrest in human WI38 cells assessed as accumulation at subG1 phase at 0.06 uM after 24 hrs by flow cytometric analysis (reference value: 10.53%)
[27] = test system: WI-38; assay: Cell cycle arrest in human WI38 cells assessed as accumulation at G1 phase at 0.06 uM after 24 hrs by flow cytometric analysis (reference value: 55.89%)
[28] = test system: A2780; assay: Induction of apoptosis in human A2780 cells assessed as early-stage apoptotic cells at […] after 48 hrs by annexin V/PI double staining (reference value: 7.13%)
[29] = test system: A2780; assay: Cell cycle arrest in human A2780 cells assessed as accumulation at G2/M phase at 1 uM after 24 hrs by flow cytometric analysis (reference value: 21.81%)
[30] = Antiproliferative activity against human PANC1 cells assessed as cell growth inhibition after 72 hrs by MTT assay; settings: PANC-1, 72 h
[31] = test system: HCT-116; assay: Antiproliferative activity against human HCT116 cells assessed as cell growth inhibition after 72 hrs by MTT assay; settings: HCT-116, 72 h
[32] = test system: WI-38; assay: Induction of apoptosis in human WI38 cells assessed as viable cells at 0.06 uM after 48 hrs by annexin V/PI double staining (reference value: 80.59%); settings: WI-38, 48 h, read-out: Activity
[33] = test system: DU-145; assay: Antiproliferative activity against AR negative human DU145 cells assessed as cell growth inhibition after 72 hrs by MTT assay; settings: DU-145, 72 h
[34] = test system: WI-38; assay: Antiproliferative activity against human WI38 cells assessed as cell growth inhibition after 72 hrs by MTT assay; settings: WI-38, 72 h
[35] = test system: A2780; assay: Induction of apoptosis in human A2780 cells assessed as viable cells at 1 uM after 48 hrs by annexin V/PI double staining (reference value: 82.12%); settings: A2780, 48 h, read-out: Activity
[36] = test system: WI-38; assay: Cell cycle arrest in human WI38 cells assessed as accumulation at G1 phase at […] after 24 hrs by flow cytometric analysis (reference value: 55.89%)
[37] = test system: A2780; assay: Induction of apoptosis in human A2780 cells assessed as late-stage apoptotic cells at 0.06 uM after 48 hrs by annexin V/PI double staining (reference value: 10.20%)
[38] = test system: A2780; assay: Induction of apoptosis in human A2780 cells assessed as late-stage apoptotic cells at 1 uM after 48 hrs by annexin V/PI double staining (reference value: 10.20%)

For `COc1cc(OC)c(/C=C/S(=O)(=O)Cc2ccc(OC)c(NCC(=O)O)c2)c(OC)c1` [RIGOSERTIB], the Activity [1] was 3.82%, the Activity [2] was 2.99% and the Activity [3] was 0.34%. It also gave a GI50 [4] of 62 nM, an Activity [5] of 5.98% and a GI50 [6] of 50 nM. The Activity [7] was 33.83%, the Activity [8] was 24.81% and the Activity [9] was 50.22%. For the same compound, the Activity [10] was 6.57%, the Activity [11] was 9.46% and the Activity [12] was 8.88%. For the same compound, the viability at […] [13] was 73.2%, the Activity [14] was 37.71% and the Activity [15] was 1.68%. The Activity [16] was 5.36%, the Activity [17] was 22.43% and the viability at 1 µM [18] was 65.7%. For the same compound, the Activity [19] was 26.34%, the viability at […] [20] was 46.2% and the GI50 [21] was 57 nM. It also gave an Activity [22] of 1.25%, an Activity [23] of 14.92% and an Activity [24] of 53.41%. For the same compound, the Activity [25] was 5.37%, the Activity [26] was 5.71% and the Activity [27] was 64.47%. It also gave an Activity [28] of 38.11%, an Activity [29] of 60.57% and a GI50 [30] of 39 nM. It also gave a GI50 [31] of 70 nM, a viability at 0.06 µM [32] of 85.5% and a GI50 [33] of 75 nM. For the same compound, the GI50 [34] was over 10000 nM, the viability at 1 µM [35] was 26.6% and the Activity [36] was 54.39%. For the same compound, the Activity [37] was 6.27% and the Activity [38] was 21.83%.

For `COc1cc(OC)c(/C=C/S(=O)(=O)Cc2ccc(OC)c(N)n2)c(OC)c1`, the Activity [1] was 38%, the Activity [2] was 1.83% and the Activity [3] was 2.88%. The GI50 [4] was 7 nM, the Activity [5] was 12.42% and the GI50 [6] was 6 nM. The Activity [7] was 24.49%, the Activity [8] was 22.54% and the Activity [9] was 55.45%. For the same compound, the Activity [10] was 8.09%, the Activity [11] was 12.08% and the Activity [12] was 2.86%. The viability at […] [13] was 84.4%, the Activity [14] was 14.1% and the Activity [15] was 1.37%. It also gave an Activity [16] of 1.49%, an Activity [17] of 15.52% and a viability at 1 µM [18] of 79.8%. The Activity [19] was 17.39%, the viability at […] [20] was 25.3% and the GI50 [21] was 7 nM. It also gave an Activity [22] of 3.39%, an Activity [23] of 25.61% and an Activity [24] of 12.87%. It also gave an Activity [25] of 13.02%, an Activity [26] of 13.31% and an Activity [27] of 54.04%. The Activity [28] was 46.99%, the Activity [29] was 59.78% and the GI50 [30] was under 1 nM. It also gave a GI50 [31] of 8 nM, a viability at 0.06 µM [32] of 82.2% and a GI50 [33] of 6 nM. For the same compound, the GI50 [34] was over 10000 nM, the viability at 1 µM [35] was 22.2% and the Activity [36] was 53.55%. It also gave an Activity [37] of 25.69% and an Activity [38] of 21.09%.

With `COc1cc(OC)c(/C=C/S(=O)(=O)Cc2ccc(OC)c(NS(C)(=O)=O)n2)c(OC)c1` the Activity [1] was 4.67%, the Activity [2] was 1.73% and the Activity [3] was 0.55%. For the same compound, the GI50 [4] was 406 nM, the Activity [5] was 0.77% and the GI50 [6] was 468 nM. It also gave an Activity [7] of 19.16%, an Activity [8] of 22.53% and an Activity [9] of 38.36%. The Activity [10] was 5.66%, the Activity [11] was 11.06% and the Activity [12] was 10.08%. For the same compound, the viability at […] [13] was 84.4%, the Activity [14] was 57.35% and the Activity [15] was 2.49%. It also gave an Activity [16] of 2.86%, an Activity [17] of 21.15% and a viability at 1 µM [18] of 67%. The Activity [19] was 20.54%, the viability at […] [20] was 88% and the GI50 [21] was 641 nM. It also gave an Activity [22] of 0.86%, an Activity [23] of 5.88% and an Activity [24] of 57.73%. The Activity [25] was 14.2%, the Activity [26] was 10.05% and the Activity [27] was 51.48%. For the same compound, the Activity [28] was 5.55%, the Activity [29] was 59.38% and the GI50 [30] was 604 nM. The GI50 [31] was 610 nM, the viability at 0.06 µM [32] was 78.1% and the GI50 [33] was 484 nM. For the same compound, the GI50 [34] was over 10000 nM, the viability at 1 µM [35] was 35.6% and the Activity [36] was 61.63%. The Activity [37] was 7.36% and the Activity [38] was 24.63%.
